Legend:
[1] = Measure of pH and EPA residual after neutral (water) dissolution and size exclusion filtration; conditions: 22 g water 130° C., 250 psi; receiver 10 g of 360 mM NaOH, 200 mM TRIS, 268 μM EDTA; two 20 μm frits
Experimental: A fluid path syringe was filled with 22 g of 18.2 MΩcm water and 10 g of 360 mM NaOH, 200 mM TRIS and 268 μM EDTA was placed in the fluid path receiver. A mixture of ^12C pyruvic acid and EPA were in the approximate ratio of 53:1 was placed in the sample container of the fluid path. The water in the syringe was heated to 130° C. and was pressurized to 250 psi. The filter body was filled with two frits used as particle size exclusion filters (Varian, part number 12131043, 1.5″ diameter, average pore size 20 μm).

[2] = pH-solubility profile of the EPA; assay type: physicochemical
Description: In an exemplary embodiment of the invention sterile deionized water is placed in the syringe of the sterile fluid path (SFP), a sample of ^13CPA mixed with EPA is placed in the sample container and NaOH, TRIS, and EDTA are placed in the receiver. Size exclusion filters are placed in the filter cartridge. In this embodiment, the pH-solubility profile of the EPA is considered.

pH of resulting solution in the receiver [1]	solubility in aqueous solutions ([2]; above pH 4)	particulate diameter ([2]; pH less than 4)	solubility in aqueous solution ([2]; pH less than 4)	Molecule
7.97				CC(=O)C(=O)O [^12C pyruvic acid]
	soluble	greater than or equal to 10 microns	predominantly insoluble	tris {8-carboxyl-2,2,6,6-tetra[2-(1-methoxyethyl)]-benzo(1,2-d:4,5-d′)bis(1,3)dithiole-4-yl}methyl sodium salt [EPA]

From patent publication US8763410B2, “Method and apparatus for the dissolution and filtration of a hyperpolarized agent with a neutral dissolution media” (General Electric Company, priority 2008, dated 2014)
